Laboratory results reported in patent US11517568B2, “Compounds and methods for treating nematode infections” (The Governing Council of The University of Toronto, priority 2018, dated 2022).
Where two headings read alike, the source gives them in different places.

Test system: L3 animals
Assay: Abnormal locomotory behaviour of L3 animals on solid agar (extended SAR)
Type: in vivo, Caenorhabditis elegans
Conditions: Caenorhabditis elegans
Description: 20 animals were scored after either 1, 6 or 24 hours of exposure to drug (as indicated) per replicate. […] Data are reported as the mean % of animals with abnormal phenotype over 4 independent replicates.

[1] = 3.75 uM, 6 h exposure, L3, mean of 4 replicates, read-out: % any phene 6 h (conc.) 3.75
[2] = 3.75 uM, 24 h exposure, L3, mean of 4 replicates, read-out: % any phene 24 h (conc.) 3.75
[3] = 15 uM, 1 h exposure, L3, mean of 4 replicates, read-out: % any phene 1 h (conc.) 15
[4] = 15 uM, 6 h exposure, L3, mean of 4 replicates, read-out: % any phene 6 h (conc.) 15
[5] = 15 uM, 24 h exposure, L3, mean of 4 replicates, read-out: % any phene 24 h (conc.) 15
[6] = 60 uM, 1 h exposure, L3, mean of 4 replicates, read-out: % any phene 1 h (conc.) 60
[7] = 60 uM, 6 h exposure, L3, mean of 4 replicates, read-out: % any phene 6 h (conc.) 60
[8] = 60 uM, 24 h exposure, L3, mean of 4 replicates, read-out: % any phene 24 h (conc.) 60
[9] = 3.75 uM, 1 h exposure, L3, mean of 4 replicates, read-out: % any phene 1 h (conc.) 3.75
[10] = 1 h, read-out: % any phene 1 h (conc.) 3.75
[11] = 1 h, read-out: % any phene 1 h (conc.) 15
[12] = 1 h, read-out: % any phene 1 h (conc.) 60
[13] = 6 h, read-out: % any phene 6 h (conc.) 3.75
[14] = 6 h, read-out: % any phene 6 h (conc.) 15
[15] = 6 h, read-out: % any phene 6 h (conc.) 60
[16] = 24 h, read-out: % any phene 24 h (conc.) 3.75
[17] = 24 h, read-out: % any phene 24 h (conc.) 15
[18] = 24 h, read-out: % any phene 24 h (conc.) 60

Row | Compound | pest or weed control at 3.75 µM [1] | pest or weed control at 3.75 µM [2] | pest or weed control at 15 µM [3] | pest or weed control at 15 µM [4] | pest or weed control at 15 µM [5] | pest or weed control at 60 µM [6] | pest or weed control at 60 µM [7] | pest or weed control at 60 µM [8] | pest or weed control at 3.75 µM [9] | pest or weed control at 3.75 µM [10] | pest or weed control at 15 µM [11] | pest or weed control at 60 µM [12] | pest or weed control at 3.75 µM [13] | pest or weed control at 15 µM [14] | pest or weed control at 60 µM [15] | pest or weed control at 3.75 µM [16] | pest or weed control at 15 µM [17] | pest or weed control at 60 µM [18]
1 | Clc1ccc(N2CCN(C3CCCCCC3)CC2)cc1 [Idd] | 86.7% | 34.2% | 100% | 100% | 98.3% | 100% | 97.5% | 97.5% |  |  |  |  |  |  |  |  |  | 
2 | c1ccc(N2CCN(C3CCCCCC3)CC2)cc1 [Iff] | 6.7% | 0% | 98.3% | 28.3% | 0% | 100% | 51.7% | 0% | 24.2% |  |  |  |  |  |  |  |  | 
3 | Clc1ccc(N2CCN(CC3CC4C=CC3C4)CC2)cc1 (stereo not shown) [Ix] | 100% | 66.7% | 100% | 100% | 100% | 100% | 100% | 100% | 89.2% |  |  |  |  |  |  |  |  | 
4 | Fc1ccc(N2CCN(C3CCCCCC3)CC2)cc1 [Iaa] | 6.7% | 0% | 89.2% | 27.5% | 0% | 100% | 97.5% | 69.2% | 45% |  |  |  |  |  |  |  |  | 
5 | O=[N+]([O-])c1ccc(N2CCN(C3CCCCCC3)CC2)cc1 [Ir] | 9.2% | 0% |  | 88.3% | 30% | 100% | 100% | 100% | 43.3% |  |  |  |  |  |  |  |  | 
6 | Fc1ccc(N2CCN(CC3CCCCC3)CC2)cc1 [Ig] |  |  |  |  |  |  |  |  |  | 21.7% | 44.2% | 95% | 0.8% | 9.2% | 79.2% | 0% | 4.2% | 66.7%
7 | Clc1ccc(N2CCN(CC3CCCCC3)CC2)cc1 [Ih] |  |  |  |  |  |  |  |  |  | 0% | 27.5% | 55.7% | 0% | 0% | 5.8% | 0% | 0% | 10.8%
8 | Fc1ccc(N2CCN(CC3CC=CCC3)CC2)cc1 (stereo not shown) [Iy] | 0% | 0% | 77.5% | 35% | 0% | 100% | 99.2% | 58.3% | 22.5% |  |  |  |  |  |  |  |  | 
9 | CC1CCC(N2CCN(c3ccccc3)CC2)CC1 (stereo not shown) [Iz] | 0% | 0% | 96.7% | 6.7% | 0% | 99.2% | 85% | 14.2% | 60.8% |  |  |  |  |  |  |  |  | 
10 | CC1CCC(N2CCN(c3ccc(F)cc3)CC2)CC1 (stereo not shown) [Ibb] | 5% | 0% |  | 75.8% | 13.3% | 100% | 100% | 100% |  |  |  |  |  |  |  |  |  | 
11 | O=[N+]([O-])c1ccc(N2CCN(C3CCCCCCC3)CC2)cc1 [Is] | 0% | 0% |  | 15% | 0% | 100% | 62.5% | 13.3% | 3.3% |  |  |  |  |  |  |  |  | 
